We go through 12 substances from patent US9433683B2, “Reversible pegylated drugs” (Yeda Research and Development Co., Ltd., priority 2003, dated 2016).

Several values for one entry are separate records, joined by “and”; a condition that tells them apart may be missing. Equal entries are not always repeated.

One may read the IC50 as the concentration at which inhibition is half-maximal. Low readings indicate higher potency, high ones lower potency.

The target of data set [1] is T1, hGH-receptor preparation extracted from rabbit liver plasma membranes (Oryctolagus cuniculus, UniProt P19941).
T1 construct: enriched hGH-receptor preparation extracted from rabbit liver plasma membranes; from tissue; host or cells: rabbit liver plasma membranes
T1 sequence (P19941 19-638): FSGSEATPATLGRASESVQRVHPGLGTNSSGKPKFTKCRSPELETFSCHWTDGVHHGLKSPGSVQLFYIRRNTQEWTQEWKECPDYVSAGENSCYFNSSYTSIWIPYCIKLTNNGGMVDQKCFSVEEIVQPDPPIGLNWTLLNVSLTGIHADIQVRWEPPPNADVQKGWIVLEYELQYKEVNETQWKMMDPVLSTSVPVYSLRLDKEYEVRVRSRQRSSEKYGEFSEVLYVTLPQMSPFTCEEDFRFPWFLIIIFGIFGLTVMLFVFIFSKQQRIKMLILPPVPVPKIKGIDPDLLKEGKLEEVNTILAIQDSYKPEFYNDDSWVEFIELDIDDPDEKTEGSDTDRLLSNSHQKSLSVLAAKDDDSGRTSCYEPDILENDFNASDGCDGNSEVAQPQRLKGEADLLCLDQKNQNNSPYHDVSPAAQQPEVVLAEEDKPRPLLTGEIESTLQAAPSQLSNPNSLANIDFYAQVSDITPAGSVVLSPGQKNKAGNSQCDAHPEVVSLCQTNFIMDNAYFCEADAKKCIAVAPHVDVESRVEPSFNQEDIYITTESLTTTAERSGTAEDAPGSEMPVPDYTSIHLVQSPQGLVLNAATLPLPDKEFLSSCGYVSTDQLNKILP
In words: 125I-hGH displacement from hGH-receptor preparation. Format: binding. Here is the method:
PEG40000-FMS-hGH (1 mg/ml) was incubated in 0.1 M phosphate buffer, 0.6% BSA and −2 mM NaN3 at 37° C. Aliquots were withdrawn at the indicated time points, and analyzed for their potencies to displace ^125I-hGH from enriched hGH-receptor preparation extracted from rabbit liver plasma membranes. Native hGH displaces ^125I-hGH in this assay half maximally at a concentration of 0.3±0.03 nM. […] PEG40000FMS-hGH (1 mg protein) was incubated as described above. At the indicated time points, 0.1 ml aliquots withdrawn and subjected to analytical HPLC analysis.
The hGH displacement assay was performed as previously described (Tsushima et al., 1980).

For data set [2] the following is noted: Clark et al., 1996; cited from earlier work.
For data set [3], the system named is rat adipocytes. In words: Lipogenesis ([U-14C]glucose incorporation into lipids) in rat adipocytes. Format: cell-based. Here is the method: (4A) Insulin (17.24 nmoles in 0.2 ml 0.01 M NaHCO3) reacted with increasing concentrations of PEG5000-Fmoc-OSu at a molar excess over the protein as indicated in the figure for 2 hours at 25° C. The number of free amino groups that remained unmodified were quantitated with TNBS.
PEG5000-Fmoc-insulin conjugates containing one and two moles of PEG5000-Fmoc/mole insulin were incubated at a concentration of 0.172 μM in 0.1 M NaHCO3-0.5% bovine serum albumin and 1 mM NaN3 at 37° C. At the indicated time points aliquots were analyzed (in several concentrations for each aliquot) for their lipogenic potencies in rat adipocytes.
Results are expressed as a percentage of maximal stimulation.
(ii) Rat adipocytes were prepared from fat pads of male Wistar rats (100-200 gr) by collagenase digestion as described (Rodbell, 1964). The fat pads were cut into small pieces with scissors and suspended in 3 ml of KRB buffer containing NaCl, 110 mM; NaHCO3, 25 mM; Kcl, 5 mM; KH2PO4, 1.2 mM; CaCl2, 1.3 mM; MgSO4, 1.3 mM; and 0.7% BSA (pH 7.4). […] Five ml of buffer was then added, and the cells were passed through a mesh screen. The cells were then allowed to stand for several minutes in a 15 ml plastic test tube at room temperature, floating, and the buffer underneath was removed. This procedure (suspension, floating, and removal of buffer underneath) was repeated three times.
(iii) Lipogenesis (incorporation of [U-^14C] glucose into the lipids of intact adipocytes). The incorporation of [U-^14C] glucose into adipose tissue in rat adipocytes was performed as described (Moody et al., 1974). Adipocyte suspensions (3×10^5 cells/ml) were divided into plastic vials (0.5 ml per vial) and incubated for 60 min at 37° C. under an atmosphere of carbogen with 0.2 mM [U-^14C]glucose, in either the absence or presence of insulin. Lipogenesis was terminated by adding toluene-based scintillation fluid (1.0 ml per vial) and the radioactivity in extracted lipids was counted.
Rat adipocytes were prepared from the fat pads of male Wistar rats (100-200 g) by collagenase digestion (Rodbel, 1964). Lipogenesis (during which [U^14-C] glucose was incorporated into the lipids) was performed using the procedure of Moody et al (Moody et al., 1974). Diabetes was induced by a single intravenous injection of freshly prepared streptozocin (STZ) solution (55 mg/kg body wt) as previously described (Meyerovitch et al., 1987). Rats were maintained at 24° C. under conditions of controlled lighting and were fed ad libitum. Blood samples for the analysis of blood glucose were taken from the tail veins and measured with a glucose analyzer (Beckman Instruments, Fullerton, Calif.) by the glucose oxidase method. Groups consisted of five Wistar rats weighing 170±5 g. Data are presented as means±SE.

In another data set the test system is CD1-mice. The data set is described as follows: Glucose-lowering potency of insulin and PEG5000-Fmoc-insulin in mice (SC or IP). Format: in vivo, mouse. As to the method:
Mice received SC, either native insulin (Zn^2+-free, 1.72 nmole/mouse in 0.2 ml PBS buffer) or (PEG5000-Fmoc)1-insulin (17.2 nmole/mouse, in 0.2 ml PBS buffer). Blood glucose levels were determined at the indicated time points. Each point is the arithmetic mean±SEM of blood glucose of five mice.
Groups of mice received IP either insulin (Zn^2+-free, 0.345 nmol/mouse, in 0.2 ml PBS buffer) or (PEG5000-Fmoc)1-insulin (3.45 nmoles/mouse, in 0.2 ml PBS buffer). Blood glucose levels were determined at the indicated time points. Each point in the figure is the arithmetic mean±SEM of five mice.
(iv) Glucose-lowering potency of insulin and its derivatives was determined in mice following administration under the conditions specified in each experiment. […] Each group consisted of 4-5 mice. Data are presented as means±SEM.
Native insulin (Zn^2+ free, 1.72 nmol/mouse) or (PEG5000-Fmoc)1-insulin (17.2 nmoles/mouse) were administered subcutaneously to groups of mice (n=5 in each group), and the glucose lowering profiles were determined. Native insulin reduced blood glucose level maximally at 30 min.
In order to differentiate between these factors, the subcutaneous compartment was bypassed by administering native insulin (Zn^2+-free, 0.345 nmoles/mouse, in 0.2 ml PBS buffer) or (PEG5000-Fmoc)1-insulin (3.45 nmoles/mouse, in 0.2 ml PBS buffer) intraperitoneally. The glucose lowering capacities were then monitored. Blood glucose levels were determined at different time points.

Another data set relates to C57BL/6J male mice. In words: Food intake (re-feeding after 24 h starvation) in mice. Format: in vivo, mouse. Here is the method: Drinking water was provided at all times.
Results are average of four identical experiments.
Drinking water was provided at all times. […] A minimum interval of 1 h was introduced between injection and re-feeding to avoid a stress-dependent decrease in food intake. The amount of food consumed per group was determined at the end of the feeding period. Remaining chow was weighed after the 2 h re-feeding period and the cumulative food intake per 10 mice was calculated. Values of food intake in replicate experiments were normalized according to the saline controls. Results are expressed as food intake per 10 mice±SD from 2-5 replicate experiments.
(vi) Statistical analysis. The significance of differences in food consumption was determined by the Student's t-test, using the total weight of food consumed by each group of 10 mice as a single value. A saline-injected group of 10 mice was included in each experiment as a control. A two-tailed, paired t-test was performed between the control and treated groups.

The nature of data set [4]: Hydrolysis of conjugates / release of parent drug upon incubation at pH 8.5, 37° C. (HPLC or TNBS).
Data set [5] relates to Escherichia coli (E. coli strain N-4156-W.T). The data set is described as follows: Inhibition of E. coli replication (antibacterial potency of gentamicin and PEG-Fmoc-gentamicin). Format: cell-based.
The conditions of data set [6]: human, in vivo; cited from earlier work.
A short description of data set [7]: Pharmacokinetic profile of SC 125I-insulin and 125I-HSA in rats. Conditions: 10 μg 125I-labeled protein.
Protocol: Blood aliquots obtained from the tail vein at the indicated time points were spotted onto Whatman #3 paper and weighed immediately. Each paper was washed with 10% TCA and measured for its radioactive content. […] Each point in the figure represents the arithmetic mean of 5 rats±SE.
Rats were maintained at 24° C. under conditions of controlled lighting and were fed ad libitum. […] Data are presented as means±SE.
For comparison, we subcutaneously administered ^125I-insulin under similar experimental conditions.
For data set [8], the system named is rat adipocytes. The data set is described as follows: Lipogenesis ([U-14C]glucose incorporation into lipids) in rat adipocytes. Format: cell-based. Conditions: Example 34 assay, 2 h at 37° C.; HSA conjugates taken as 24±3 μg insulin per mg HSA.
The mark [9] stands for this setting: SC 5 nmol/mouse, 18 h prior to re-feeding.

On to “(PEG40-FMS)2-hGH: two PEG40-FMS moieties linked to hGH”, for which, in data set [1] (37° C., normal rat serum or pH 8.5), the “native-receptor binding capacity following 50 hours of incubation” value is 70-80%.
For the substance “(PEG5000)5 hGH: hGH with about five PEG5000 chains linked irreversibly (Clark et al., 1996)”, the “biological potency of hGH” value in data set [2] is recorded as “less than 0.1%”.
As for “(PEG5000-Fmoc)1-insulin: about one mol PEG-Fmoc per mol insulin”, the “lipogenic activity, % of native potency” value in the data set with rat adipocytes [3] (after 2 hours at pH 8.5, 37° C.) is recorded as 16%; in the data set on rat adipocytes [3] (after 4 hours at pH 8.5, 37° C.), 24%; in the data set on rat adipocytes [3] (after 10 hours at pH 8.5, 37° C.), 30%; with rat adipocytes [3] (after 17 hours at pH 8.5, 37° C.) it was 36%; in the data set with rat adipocytes [3] (after 80 hours at pH 8.5, 37° C.), 95%. Moreover, in the data set on rat adipocytes [3] (prior to hydrolysis / time 0), the “biological (lipogenic) potency of the native hormone” value is reported as 7±1%. In the data set on CD1-mice (IP administration), the “return to normoglycemia, slower than native hormone” value was 3.4 fold. Also, in the data set on CD1-mice (IP, 3.45 nmoles/mouse), the “time of maximal fall of circulating glucose” value worked out at 1.0 h. The “time of return to normal glucose values after administration” value in the data set on CD1-mice (IP, 3.45 nmoles/mouse) is 6 h. Moreover, the “additional time maintained at the low glucose level” value in the data set with CD1-mice (SC, 17.2 nmoles/mouse) was determined as 4 h. Besides, the “time of maximal lowering of circulating glucose” value in the data set on CD1-mice (SC, 17.2 nmoles/mouse) was found to be 4 h. Further, the “half time of return to normoglycemic values relative to native insulin” value in the data set on CD1-mice (single SC administration) worked out at 6.7 fold.
As to “(PEG5000-Fmoc)2-insulin: insulin conjugate containing two moles of PEG5000-Fmoc/mole insulin”, the “lipogenic activity, % of native insulin potency” value in the data set with rat adipocytes [3] (after 30±2 hours at pH 8.5, 37° C.) stood at 45±3%; in the data set with rat adipocytes [3] (after 80±4 hours at pH 8.5, 37° C.), 90%. The “lag period before regeneration of lipogenic potency” value in the data set with rat adipocytes [3] (incubation at pH 8.5, 37° C.) was 10 ± 1 h and 10 h.
Regarding “Nα-Nε-diacetyl-PYY3-36: PYY3-36 acetylated at its two amino groups [reference compound]”, the “food consumed in 2 h re-feeding” value in the data set with C57BL/6J male mice (20 μg per mouse) turned out to be 10.54±0.08 g chow per 10 mice.
In the case of “PEG40-FMS-PYY3-36: 1:1 conjugate of PEG40-SH and MAL-FMS-PYY3-36”, the “cumulative amount of free PYY3-36, % of input conjugate” value in data set [4] (after 40 h) is 79%. In addition, in the data set with C57BL/6J male mice (setting [9]), the “food consumed in 2 h re-feeding” value was found to be 4.7±0.14 g chow per 10 mice and the “reduction in food intake compared with saline” value is on record as 52%. For the same substance, the “reduction in food intake” value with C57BL/6J male mice (SC 5 nmol/mouse, 24 h prior to re-feeding) is listed as 27%. Also, the “half-life of satiety effect, longer than unmodified PYY3-36” value with C57BL/6J male mice (mouse, in vivo) turned out to be 8 fold.
Consider PEG40-FMS-hGH, for which the “k (h^−1), slope of ln [PEG-FMS conjugate] against time” value in data set [4] is recorded as 0.059 h^−1. For the same substance, the “receptor binding affinity” value in data set [1] (in vitro, prior to incubation) is reported as “no receptor binding affinity”.
Take “PEG40-PYY3-36: Irreversibly pegylated PYY3-36, one PEG40 residue per PYY3-36 [reference compound]”: in the data set with C57BL/6J male mice (SC 5 nmol/mouse, 1 h prior to re-feeding), the “biological activity of irreversibly pegylated PYY3-36 on food intake” value was “No significant reduction in food intake”.
For “PEG5000-Fmoc-insulin: insulin preparations with 0.3 to 2.2 mol PEG5000-Fmoc incorporated per mol insulin”, the “biological (lipogenic) potency relative to native insulin” value in the data set on rat adipocytes [3] (0.3 mol PEG5000-Fmoc/mol insulin incorporated) was 87±4%; with rat adipocytes [3] (0.6 mol PEG5000-Fmoc/mol insulin incorporated) it was 60±3%; in the data set on rat adipocytes [3] (1.1 mol PEG5000-Fmoc/mol insulin incorporated), 8±1%; in the data set with rat adipocytes [3] (1.5 mol PEG5000-Fmoc/mol insulin incorporated) it was 4±0.3%; with rat adipocytes [3] (2.2 mol PEG5000-Fmoc/mol insulin incorporated), “less than 1%”.
Turning to gentamicin, in [5], inhibition was half-maximal at 0.22 ± 0.02 µM (IC50) and the “concentration inhibiting E. coli replication half-maximally” value was 0.1 µg/mL.
For hGH: Recombinant hGH, the “t1/2 of clearance from the circulatory system” value in data set [6] is 0.333 to 0.5 h.
For “insulin: Human (Zn2+-free) insulin [reference compound]”, in data set [7], the “t1/2 of decline in blood” value worked out at 9.0 ± 1.0 h and the “time of peak value in blood after administration” value amounted to 1 ± 0.1 h. The “ED50 in lipogenic assay” value with rat adipocytes [8] was 0.3 ± 0.01 ng/mL and 0.3 ng/mL. In addition, in the data set on rat adipocytes [3], the “stimulation of lipogenesis above basal levels” value was 4-6 times above basal and 4-5 times above basal. In addition, the “ED50 for stimulation of lipogenesis” value with rat adipocytes [3] (rat adipocytes, Example 28 assay) is 0.2 ± 0.02 ng/mL and 0.15 ± 0.03 ng/mL. Moreover, the “time of maximal fall of circulating glucose” value with CD1-mice (IP, 0.345 nmoles/mouse) amounted to 0.25 h. Besides, the “time of maximal reduction of blood glucose level” value in the data set on CD1-mice (SC, 1.72 nmol/mouse) is recorded as 30 min.
